# Experimental data taken from US20260262643A1, “HERBICIDAL BENZOXAZINES” (FMC CORPORATION, priority 2022, published 2026).
# How the values were obtained:
# [1] = tested on: galium; assay: Test A postemergence; format: in vivo, Galium aparine; settings: Galium, post-emergence, 240 h, read-out: Plant response rating, Galium
# Method in brief: (§1)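 Greenhouse pot test, 10 days. Compound (non-phytotoxic solvent, surfactant) sprayed on soil at seeding or on seedlings at one- to two-leaf stage. Visual injury rated 0–100 against untreated plants.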
# [2] = tested on: ragweed; assay: Test A preemergence; format: in vivo, Ambrosia artemisiifolia; settings: Ambrosia artemisiifolia, pre-emergence, 240 h, read-out: Plant response rating, Ragweed
# Method in brief: as §1
# [3] = tested on: wheat; assay: Test A postemergence; format: in vivo, Triticum aestivum; settings: Triticum aestivum, post-emergence, 240 h, read-out: Plant response rating, Wheat
# Method in brief: as §1
# [4] = tested on: pigweed, palmer; assay: Test A preemergence; format: in vivo, Amaranthus palmeri; settings: Amaranthus palmeri, pre-emergence, 240 h, read-out: Plant response rating, Pigweed, Palmer
# Method in brief: as §1
# [5] = tested on: wheat; assay: Test A preemergence; format: in vivo, Triticum aestivum; settings: Triticum aestivum, pre-emergence, 240 h, read-out: Plant response rating, Wheat
# Method in brief: as §1
# [6] = tested on: goosegrass; assay: Test A postemergence; format: in vivo, Eleusine indica; settings: Eleusine indica, post-emergence, 240 h, read-out: Plant response rating, Goosegrass
# Method in brief: as §1
# [7] = tested on: oat, wild; assay: Test A postemergence; format: in vivo, Avena fatua; settings: Avena fatua, post-emergence, 240 h, read-out: Plant response rating, Oat, Wild
# Method in brief: as §1
# [8] = tested on: ryegrass, Italian; assay: Test A postemergence; format: in vivo, Lolium multiflorum; settings: Lolium multiflorum, post-emergence, 240 h, read-out: Plant response rating, Ryegrass, Italian
# Method in brief: as §1
# [9] = tested on: ragweed; assay: Test A postemergence; format: in vivo, Ambrosia artemisiifolia; settings: Ambrosia artemisiifolia, post-emergence, 240 h, read-out: Plant response rating, Ragweed
# Method in brief: as §1
# [10] = tested on: foxtail, giant; assay: Test A postemergence; format: in vivo, Setaria faberi; settings: Setaria faberi, post-emergence, 240 h, read-out: Plant response rating, Foxtail, Giant
# Method in brief: as §1
# [11] = tested on: soybean; assay: Test A preemergence; format: in vivo, Glycine max; settings: Glycine max, pre-emergence, 240 h, read-out: Plant response rating, Soybean
# Method in brief: as §1
# [12] = tested on: corn; assay: Test A preemergence; format: in vivo, Zea mays; settings: Zea mays, pre-emergence, 240 h
# Method in brief: as §1
# [13] = tested on: soybean; assay: Test A postemergence; format: in vivo, Glycine max; settings: Glycine max, post-emergence, 240 h, read-out: Plant response rating, Soybean
# Method in brief: as §1
# [14] = tested on: sedge, umbrella; assay: Test B flooded paddy test; format: in vivo, Cyperus difformis; settings: Cyperus difformis, 312 h; 250 g ai/ha, Flood, 13 days, 0 to 100 scale (0 no effect, 100 complete control); read-out: Plant response rating, Sedge, Umbrella
# Method in brief: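 Plants at the 2-leaf stage were flooded to 3 cm above the soil, and test compounds were applied directly into the paddy water, with that depth held throughout. After 13 days in a greenhouse, injury was rated visually against untreated controls on a 0–100 scale (100 = complete control).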
# [15] = 125 g ai/ha, postemergence, 10 days, visual injury, 0 to 100 scale (0 no effect, 100 complete control)
# [16] = 500 g ai/ha, Postemergence, 0 to 100 scale
# [17] = 125 g ai/ha, visual injury after 10 days, 0 to 100 scale, 0 is no effect, 100 is complete control
# [18] = 500 g ai/ha, 0 to 100 scale (0 no effect, 100 complete control), 10 days
smiles,measurement,setting,value
"C#Cc1ncn(-c2cccc(C(=O)N3C[C@H](C)Oc4c(C)cccc43)c2)n1 [Compound 64, [(2S)-2,3-Dihydro-2,8-dimethyl-4H-1,4-benzoxazin-4-yl][3-(3-ethynyl-1H-1,2,4-triazol-1-yl)phenyl]methanone]",pest or weed control at 125 g/ha,[1]; [15],90%
same,pest or weed control at 500 g/ha,[1]; [16],100%
same,pest or weed control at 125 g/ha,[2]; [17],0%
same,pest or weed control at 500 g/ha,[2]; [18],0%
same,plant injury at 125 g/ha,[3]; [15],10%
same,plant injury at 500 g/ha,[3]; [16],40%
same,pest or weed control at 125 g/ha,[4]; [17],40%
same,pest or weed control at 500 g/ha,[4]; [18],100%
same,plant injury at 125 g/ha,[5]; [17],20%
same,plant injury at 500 g/ha,[5]; [18],40%
same,pest or weed control at 125 g/ha,[6]; [15],10%
same,pest or weed control at 500 g/ha,[6]; [16],30%
same,pest or weed control at 125 g/ha,[7]; [15],50%
same,pest or weed control at 500 g/ha,[7]; [16],70%
same,pest or weed control at 125 g/ha,[8]; [15],40%
same,pest or weed control at 500 g/ha,[8]; [16],100%
same,pest or weed control at 125 g/ha,[9]; [15],0%
same,pest or weed control at 500 g/ha,[9]; [16],40%
same,pest or weed control at 125 g/ha,[10]; [15],20%
same,pest or weed control at 500 g/ha,[10]; [16],90%
same,plant injury at 125 g/ha,[11]; [17],20%
same,plant injury at 500 g/ha,[11]; [18],30%
same,"Corn plant response rating (crop injury, 0 = no effect, 100 = complete kill) at 125 g/ha",[12]; [17],20%
same,"Corn plant response rating (crop injury, 0 = no effect, 100 = complete kill) at 500 g/ha",[12]; [18],50%
same,plant injury at 125 g/ha,[13]; [15],80%
same,plant injury at 500 g/ha,[13]; [16],100%
same,pest or weed control at 250 g/ha,[14],75%
